Seven molecules from ChEMBL document CHEMBL1153957, “Novel small molecule activators of beta-catenin-mediated signaling pathway: structure-activity relationships of indirubins” (Bioorg Med Chem Lett, 2009) can be followed below.

Activity calls are given as the source filed them. The calls are words filed in the database; no cut-off is given here.

Holding throughout (assay type): cell-based
Holding throughout (details): Homo sapiens

Test [1] can be described thus: Activation of Wnt signaling pathway in HEK293 cells assessed as increase in beta-catenin-mediated Tcf/Lef transcriptional activity at 250 nM after 24 hrs by dual luciferase reporter gene assay relative to control.
The nature of test [2]: Activation of Wnt signaling pathway in HEK293 cells assessed as increase in phosphorylation at Ser9 of GSK3-beta at 250 nM after 24 hrs by Western blot analysis.
The nature of test [3]: Activation of Wnt signaling pathway in HEK293 cells assessed as decrease in phosphorylation at Tyr216 of GSK3-beta at 250 nM after 24 hrs by Western blot analysis.
Test [4] can be described thus: Activation of Wnt signaling pathway in HEK293 cells assessed as decrease in phosphorylation at […]/37/Thr41 of […] at 250 nM after 24 hrs by Western blot analysis.
Test [5] can be described thus: Activation of Wnt signaling pathway in HEK293 cells assessed as increase in beta-catenin-mediated Tcf/Lef transcriptional activity after 24 hrs by dual luciferase reporter gene.

`O=Nc1c(-c2c(O)[nH]c3ccc([N+](=O)[O-])cc23)[nH]c2ccccc12`: the fold change (FC) in test [1] came out at 4.2. The result in test [2], in test [3] and in test [4] was Active.
For the molecule `CC(=O)Nc1ccc2c(c1)/C(=C1/Nc3ccccc3/C1=N\O)C(=O)N2`, in test [1], the fold change (FC) was determined as 1.89.
Still for that read-out and setting: then `CC(C)(C)C(=O)Nc1ccc2c(c1)/C(=C1/Nc3ccccc3/C1=N\O)C(=O)N2`, with 1.51.
`O=C1Nc2cc(Br)ccc2/C1=C1/Nc2ccccc2/C1=N\O`: the fold change (FC) in test [1] stood at 2.7. Also, in test [5], the Activity entry is “Dose-dependent effect”.
For `O=C1Nc2ccc(Cl)cc2/C1=C1/Nc2ccccc2/C1=N\O`, in test [1], the fold change (FC) stood at 3.46.
On the same count and under the same terms, in the case of `O=C1Nc2ccc([N+](=O)[O-])cc2/C1=C1/Nc2ccc(Br)cc2/C1=N/O` it was 1.66.
Consider `O=C1Nc2ccccc2/C1=C1/Nc2ccccc2C1=O`, for which the fold change (FC) in test [1] is 2.04.
